# Tested on: HL60 cells
# Assay: Anti-cancer activity test, MTT, HL60 cells
# Type: cell-based
# Details: Homo sapiens, HL-60, culturing for 72 hours
# Procedure: Cell culture medium: Roswell medium RPMI-1640 (+L-glutamine) was added with 10% fetal bovine serum, with 100 units penicillin and 100 μg streptomycin per ml.
# Cell culture conditions: 5% CO2, 95% humidity, cultured at 37° C. constant temperature.
# 2. Cell Inoculation, Drugs Dosing and Culture.
# Logarithmic growth phase HL-60, human chronic myeloid leukemia cells (K562), human esophageal squamous cell carcinoma cells (KYSE510), human large cell lung cancer cells (H460) were inoculated into 96-well cell culture plates, 2×10^4 cells per well. Different concentrations of active compounds (dissolved in dimethyl sulfoxide (DMSO) stock solution) were added, so that the final concentration of DMSO was 0.2%, and the control group was DMSO. Each group was repeated three times.
# After culturing for 72 hours, 20 µL of thiazolyl blue (MTT) (5 mg/ml, ready for use, dissolved in 1×PBS for cell culture) was added to each well, and incubated at 37° C. for 3 hours.
# The 96-well cell culture plates were centrifuged at 1000 rpm for 10 minutes. The supernatant was discarded; 200 μL of DMSO was added to each well and the plate was shaken for 5 minutes.
# The absorbance of each well was detected at 570 nm wavelength with a microplate reader, and the IC50 of the compounds was calculated.
row,Compound,IC50
1,CC(C)C[C@H](NC(=O)[C@H](C)NC(=O)c1cccc2c1C(=O)N(C1CCC(=O)NC1=O)C2=O)B1O[C@@H]2C[C@@H]3C[C@@H](C3(C)C)[C@]2(C)O1 (stereo partly shown) [Compound A54],2000 to 10000 nM
2,CC(C)C[C@H](NC(=O)[C@H](CC(C)C)NC(=O)CN(c1ccccc1)c1ccccc1)B1O[C@@H]2C[C@@H]3C[C@@H](C3(C)C)[C@]2(C)O1 [Compound A55],500 to 2000 nM
3,CC(C)C[C@H](NC(=O)[C@H](CC(C)C)NC(=O)Cn1c2ccccc2c2cccnc21)B1O[C@@H]2C[C@@H]3C[C@@H](C3(C)C)[C@]2(C)O1 [Compound A56],500 to 2000 nM
4,COc1ccc2c3ccccc3n(CC(=O)N[C@@H](CC(C)C)C(=O)N[C@@H](CC(C)C)B3O[C@@H]4C[C@@H]5C[C@@H](C5(C)C)[C@]4(C)O3)c2c1 [Compound A57],500 to 2000 nM
5,CC(C)C[C@H](NC(=O)[C@H](CC(C)C)NC(=O)Cn1c2ccccc2c2cnccc21)B1O[C@@H]2C[C@@H]3C[C@@H](C3(C)C)[C@]2(C)O1 [Compound A58],100 to 500 nM
6,CC(C)C[C@H](NC(=O)[C@H](CC(C)C)NC(=O)Cn1c2ccc(Cl)cc2c2cc(Cl)ccc21)B1O[C@@H]2C[C@@H]3C[C@@H](C3(C)C)[C@]2(C)O1 [Compound A59],500 to 2000 nM
7,CC(C)C[C@H](NC(=O)[C@H](CC(C)C)NC(=O)Cn1c2ccccc2c2cc(F)ccc21)B1O[C@@H]2C[C@@H]3C[C@@H](C3(C)C)[C@]2(C)O1 [Compound A60],500 to 2000 nM
8,CC(C)C[C@H](NC(=O)[C@H](CC(C)C)NC(=O)Cn1c2ccccc2c2ccc(C#N)cc21)B1O[C@@H]2C[C@@H]3C[C@@H](C3(C)C)[C@]2(C)O1 [Compound A61],100 to 500 nM
9,CC(C)C[C@H](NC(=O)[C@H](CC(C)C)NC(=O)Cn1c2ccccc2c2ccc(Br)cc21)B1O[C@@H]2C[C@@H]3C[C@@H](C3(C)C)[C@]2(C)O1 [Compound A62],100 to 500 nM
10,CC(C)C[C@H](NC(=O)[C@H](CC(C)C)NC(=O)Cn1c2ccccc2c2ncccc21)B1O[C@@H]2C[C@@H]3C[C@@H](C3(C)C)[C@]2(C)O1 [Compound A63],100 to 500 nM
11,CC(C)C[C@H](NC(=O)[C@H](CC(C)C)NC(=O)Cn1c2ncccc2c2cccnc21)B1O[C@@H]2C[C@@H]3C[C@@H](C3(C)C)[C@]2(C)O1 [Compound A64],500 to 2000 nM
12,CC(C)C[C@H](NC(=O)[C@H](CC(C)C)NC(=O)OCC1c2ccccc2-c2ccccc21)B(O)O [Compound A65],< 100 nM
13,CC(C)C[C@H](NC(=O)[C@H](Cc1c[nH]c2ccccc12)NC(=O)OCc1ccccc1)B(O)O [Compound A66],< 100 nM
14,CC(C)C[C@H](NC(=O)[C@H](Cc1c[nH]c2ccccc12)NC(=O)CC12CC3CC(CC(C3)C1)C2)B(O)O [Compound A68],100 to 500 nM
15,CC(C)C[C@H](NC(=O)[C@H](Cc1c[nH]c2ccccc12)NC(=O)CC1CC1)B(O)O [Compound A70],< 100 nM
16,CC(C)C[C@H](NC(=O)[C@H](Cc1c[nH]c2ccccc12)NS(=O)(=O)Cc1ccccc1)B(O)O [Compound A71],< 100 nM
17,CC(C)C[C@H](NC(=O)[C@H](Cc1c[nH]c2ccccc12)NC(=O)c1ccncc1)B(O)O [Compound A72],500 to 2000 nM
18,CC(C)C[C@H](NC(=O)[C@H](Cc1c[nH]c2ccccc12)NC(=O)c1nc2ccccc2s1)B(O)O [Compound A73],< 100 nM
19,CC(C)C[C@H](NC(=O)[C@H](Cc1c[nH]c2ccccc12)NC(=O)c1ccc2ncccc2c1)B(O)O [Compound A74],< 100 nM
20,CC(C)C[C@H](NC(=O)[C@H](Cc1c[nH]c2ccccc12)NC(=O)c1cnc2ccccc2c1)B(O)O [Compound A75],< 100 nM
21,CC(C)C[C@H](NC(=O)[C@H](Cc1c[nH]c2ccccc12)NC(=O)c1ccc2ccccc2c1)B(O)O [Compound A76],< 100 nM
22,CC(C)C[C@H](NC(=O)[C@H](Cc1c[nH]c2ccccc12)NC(=O)NC1CCCC1)B(O)O [Compound A77],< 100 nM
23,CC(C)C[C@H](NC(=O)[C@H](Cc1c[nH]c2ccccc12)NC(=O)OC1CCCC1)B(O)O [Compound A78],< 100 nM
24,CC(C)C[C@H](NC(=O)[C@H](Cc1c[nH]c2ccccc12)NCc1ccccc1)B(O)O [Compound A79],100 to 500 nM
25,COC(=O)C[C@H](NC(=O)CC1c2ccccc2-c2ccccc21)C(=O)N[C@@H](CC(C)C)B(O)O [Compound A80],< 100 nM
26,CC(C)C[C@H](NC(=O)[C@H](CC(N)=O)NC(=O)CC1c2ccccc2-c2ccccc21)B(O)O [Compound A81],100 to 500 nM

row,Compound,IC50
1,CC(C)C[C@H](NC(=O)OCC1c2ccccc2-c2ccccc21)C(=O)N1CCC[C@H]1B(O)O [Compound A82],2000 to 10000 nM
2,CC(C)C[C@H](NC(=O)[C@H](CC(C)C)N(C)C(=O)OCC1c2ccccc2-c2ccccc21)B(O)O [Compound A83],2000 to 10000 nM
3,CC(C)C[C@H](NC(=O)CNC(=O)OCC1c2ccccc2-c2ccccc21)B(O)O [Compound A84],< 100 nM
4,CC(C)C[C@H](NC(=O)[C@@H](C)NC(=O)OCC1c2ccccc2-c2ccccc21)B(O)O [Compound A85],100 to 500 nM
5,CC(C)C[C@H](NC(=O)[C@H](C)NC(=O)OCC1c2ccccc2-c2ccccc21)B(O)O [Compound A86],< 100 nM
6,COc1ccc2cc(C(=O)N[C@@H](Cc3c[nH]c4ccccc34)C(=O)N[C@@H](CC(C)C)B(O)O)ccc2c1 [Compound A87],< 100 nM
7,CC(C)C[C@H](NC(=O)[C@H](Cc1c[nH]c2ccccc12)NC(=O)c1ccc2cc(N)ccc2c1)B(O)O [Compound A88],< 100 nM
8,CC(C)C[C@H](NC(=O)[C@H](CC(=O)NC(c1ccccc1)(c1ccccc1)c1ccccc1)NC(=O)OCC1c2ccccc2-c2ccccc21)B(O)O [Compound A89],100 to 500 nM
9,CC(C)C[C@H](NC(=O)[C@H](C)NC(=O)c1ccc2c(c1)C(=O)N(C1CCC(=O)NC1=O)C2=O)B(O)O (stereo partly shown) [Compound A90],2000 to 10000 nM
10,CC(C)C[C@H](NC(=O)[C@H](C)NC(=O)c1cccc2c1C(=O)N(C1CCC(=O)NC1=O)C2=O)B(O)O (stereo partly shown) [Compound A91],2000 to 10000 nM
11,CC(C)C[C@H](NC(=O)[C@H](CC(C)C)NC(=O)Cn1c2ccccc2c2ccncc21)B(O)O [Compound A92],100 to 500 nM
12,CC(C)C[C@H](NC(=O)[C@H](CC(C)C)NC(=O)CN(c1ccccc1)c1ccccc1)B(O)O [Compound A93],500 to 2000 nM
13,CC(C)C[C@H](NC(=O)[C@H](CC(C)C)NC(=O)Cn1c2ccccc2c2cccnc21)B(O)O [Compound A94],500 to 2000 nM
14,COc1ccc2c3ccccc3n(CC(=O)N[C@@H](CC(C)C)C(=O)N[C@@H](CC(C)C)B(O)O)c2c1 [Compound A95],500 to 2000 nM
15,CC(C)C[C@H](NC(=O)[C@H](CC(C)C)NC(=O)Cn1c2ccccc2c2cnccc21)B(O)O [Compound A96],100 to 500 nM
16,CC(C)C[C@H](NC(=O)[C@H](CC(C)C)NC(=O)Cn1c2ccc(Cl)cc2c2cc(Cl)ccc21)B(O)O [Compound A97],500 to 2000 nM
17,CC(C)C[C@H](NC(=O)[C@H](CC(C)C)NC(=O)Cn1c2ccccc2c2cc(F)ccc21)B(O)O [Compound A98],500 to 2000 nM
18,CC(C)C[C@H](NC(=O)[C@H](CC(C)C)NC(=O)Cn1c2ccccc2c2ccc(Cl)cc21)B(O)O [Compound A99],100 to 500 nM
19,CC(C)C[C@H](NC(=O)[C@H](CC(C)C)NC(=O)Cn1c2cc(Cl)ccc2c2ccc(Cl)cc21)B(O)O [Compound A100],500 to 2000 nM
20,CC(C)C[C@H](NC(=O)[C@H](CC(C)C)NC(=O)Cn1c2ccccc2c2ccc(C#N)cc21)B(O)O [Compound A101],100 to 500 nM
21,CC(C)C[C@H](NC(=O)[C@H](CC(C)C)NC(=O)Cn1c2ccccc2c2ccc(Br)cc21)B(O)O [Compound A102],100 to 500 nM
22,CC(C)C[C@H](NC(=O)[C@H](CC(C)C)NC(=O)Cn1c2ccccc2c2ccc(F)cc21)B(O)O [Compound A103],500 to 2000 nM
23,CC(C)C[C@H](NC(=O)[C@H](CC(C)C)NC(=O)Cn1c2ccccc2c2ncccc21)B(O)O [Compound A104],100 to 500 nM
24,CC(C)C[C@H](NC(=O)[C@H](CC(C)C)NC(=O)Cn1c2ccccc2c2ccc(OCc3ccccc3)cc21)B(O)O [Compound A105],100 to 500 nM
25,CC(C)C[C@H](NC(=O)[C@H](CC(C)C)NC(=O)Cn1c2ccccc2c2ccc(O)cc21)B(O)O [Compound A106],100 to 500 nM
26,CC(C)C[C@H](NC(=O)[C@H](CC(C)C)NC(=O)Cn1c2ncccc2c2cccnc21)B(O)O [Compound A107],500 to 2000 nM
